Reference: patent publication US10513521B2, “Compositions and methods for inhibiting BMP” (The Brigham and Women's Hospital, Inc., priority 2014, dated 2019)
Substitutions are numbered along the chain they refer to.

Legend:
ALK5 = target: T1, ALK5 (Homo sapiens, UniProt P36897); assay: TR-FRET enzymatic ALK kinase assay, ALK5
T1 sequence (P36897 34-503): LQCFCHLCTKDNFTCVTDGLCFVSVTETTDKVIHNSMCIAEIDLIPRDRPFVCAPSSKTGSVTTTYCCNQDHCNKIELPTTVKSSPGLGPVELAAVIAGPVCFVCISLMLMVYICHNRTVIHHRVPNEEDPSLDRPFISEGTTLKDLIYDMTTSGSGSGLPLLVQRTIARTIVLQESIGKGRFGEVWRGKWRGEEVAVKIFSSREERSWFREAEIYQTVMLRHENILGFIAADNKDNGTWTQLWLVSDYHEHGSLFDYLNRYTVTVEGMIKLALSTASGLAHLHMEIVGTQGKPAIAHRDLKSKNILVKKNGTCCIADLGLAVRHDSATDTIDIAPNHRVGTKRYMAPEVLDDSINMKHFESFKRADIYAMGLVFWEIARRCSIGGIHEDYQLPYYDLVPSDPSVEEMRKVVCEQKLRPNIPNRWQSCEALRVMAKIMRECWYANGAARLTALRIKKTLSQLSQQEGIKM
Description: Six ALK kinase enzyme assays were developed for determination of compound activities on ALK1, ALK2, ALK3, ALK4, ALK5 and ALK6.
(§1) Briefly, the ALKs enzymatic assay was initiated by dispense 2.5 μl enzyme in 1× kinase reaction buffer. The assay plate was then added with compounds followed by incubation at room temperature for 10 minutes. Then 2.5 μl/well substrate was added.

ALK4 = target: T2, ALK4 (Homo sapiens, UniProt P36896); assay: TR-FRET enzymatic ALK kinase assay, ALK4
T2 sequence (P36896 24-505): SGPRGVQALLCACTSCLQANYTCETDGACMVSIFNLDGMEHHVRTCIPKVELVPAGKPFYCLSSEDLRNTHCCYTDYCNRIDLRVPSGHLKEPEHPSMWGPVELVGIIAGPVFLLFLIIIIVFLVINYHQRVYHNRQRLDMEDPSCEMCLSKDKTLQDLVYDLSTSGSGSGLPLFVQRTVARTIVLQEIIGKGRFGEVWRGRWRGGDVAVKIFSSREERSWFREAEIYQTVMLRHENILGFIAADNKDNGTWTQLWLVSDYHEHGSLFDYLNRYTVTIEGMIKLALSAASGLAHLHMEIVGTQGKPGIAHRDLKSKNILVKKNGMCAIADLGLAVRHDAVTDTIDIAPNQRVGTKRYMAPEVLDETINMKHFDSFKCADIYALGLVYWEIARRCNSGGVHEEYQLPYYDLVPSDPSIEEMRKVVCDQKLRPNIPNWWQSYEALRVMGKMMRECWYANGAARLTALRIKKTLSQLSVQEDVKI
Description: as §1

ALK2 [1] = target: T3, ALK2 (Mus musculus, UniProt P37172); assay: HTRF pSMAD1 cell-based ALK2 assay (C2C12 cells, BMP6 as agonist); conditions: cell-based assay, BMP6; read-out: Cell IC50 BMP6
T3 construct: The C2C12 cell line was selected for the measurement of ALK2 activity using BMP6 as the agonist; host or cells: C2C12
T3 sequence (P37172 21-509): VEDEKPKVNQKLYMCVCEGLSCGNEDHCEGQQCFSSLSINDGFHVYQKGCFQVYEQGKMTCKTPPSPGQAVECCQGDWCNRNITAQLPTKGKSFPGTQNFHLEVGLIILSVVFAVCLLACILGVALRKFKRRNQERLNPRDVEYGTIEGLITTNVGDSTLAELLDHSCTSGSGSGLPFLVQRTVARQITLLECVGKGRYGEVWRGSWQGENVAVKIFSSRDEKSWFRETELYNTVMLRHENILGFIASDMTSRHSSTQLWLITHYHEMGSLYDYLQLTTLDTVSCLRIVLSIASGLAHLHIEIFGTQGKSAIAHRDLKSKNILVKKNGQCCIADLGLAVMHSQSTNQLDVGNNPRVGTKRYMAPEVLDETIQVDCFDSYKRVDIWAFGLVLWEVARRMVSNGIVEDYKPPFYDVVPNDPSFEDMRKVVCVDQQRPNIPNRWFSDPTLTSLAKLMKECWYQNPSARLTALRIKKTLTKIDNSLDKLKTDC
Description: 2. HTRF Cell-Based ALK1 and ALK2 Assays in 384-Well Plate Format We have developed a cell based ALK1 kinase assay and a cell-based ALK2 assay. The BAOEC cell line was employed for the measurement of ALK1 activity using BMP9 as the agonist. The C2C12 cell line was selected for the measurement of ALK2 activity using BMP6 as the agonist. The kinase specificity was defined by the specific cell line and agonist. The kinase activity was determined by the status of SMD 1/5/8 phosphorylation stimulated by the agonist.
HyClone Fetal Bovine Serum was obtained from GE healthcare life sciences (Logan, Utah). BMP6 and BMP9 were purchased from R&D System. […] The compound plates and the white solid MB assay plates were purchased from Greiner Bio-one (Monroe, N.C.).
HTRF optimization experiments were performed in 384 well plate format. […] Pre-starved cells were then plated in 384 well plate in the starvation medium (containing in 0.1% FBS). After 4 hours, compounds were added to the assay plate and incubated for 30 minutes. The assay plate was then added with BMP6 for C2C12 cells or BMP9 for BAOEC cells and incubated for 30 minutes.
HTRF assay was performed to measure the status of SMAD 1 phosphorylation after stimulated with the agonist (Table 3). This HTRF phospho SMAD1 cell assay was developed and optimized for the homogenous detection of phospho SMAD 1 levels in cells. […] The plate was incubated at room temperature for overnight.

ALK1 = ALK1 (Homo sapiens, UniProt P37023); assay: TR-FRET enzymatic ALK kinase assay, ALK1
Chain of ALK1 (P37023 22-503): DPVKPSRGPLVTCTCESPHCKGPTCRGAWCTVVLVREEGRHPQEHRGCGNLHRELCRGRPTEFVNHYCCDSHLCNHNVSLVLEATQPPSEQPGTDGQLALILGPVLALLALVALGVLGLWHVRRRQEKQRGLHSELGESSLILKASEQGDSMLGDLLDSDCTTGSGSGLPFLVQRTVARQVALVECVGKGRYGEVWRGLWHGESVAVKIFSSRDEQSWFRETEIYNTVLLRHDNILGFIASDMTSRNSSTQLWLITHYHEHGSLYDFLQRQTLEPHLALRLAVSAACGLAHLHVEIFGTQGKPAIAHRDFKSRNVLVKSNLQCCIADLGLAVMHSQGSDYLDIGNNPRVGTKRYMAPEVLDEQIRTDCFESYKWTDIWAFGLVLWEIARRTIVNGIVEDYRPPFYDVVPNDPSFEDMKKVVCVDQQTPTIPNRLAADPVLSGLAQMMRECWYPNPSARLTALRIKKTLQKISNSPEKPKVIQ
Description: as §1

ALK6 = ALK6 (Homo sapiens, UniProt O00238); assay: TR-FRET enzymatic ALK kinase assay, ALK6
Chain of ALK6 (O00238 14-502): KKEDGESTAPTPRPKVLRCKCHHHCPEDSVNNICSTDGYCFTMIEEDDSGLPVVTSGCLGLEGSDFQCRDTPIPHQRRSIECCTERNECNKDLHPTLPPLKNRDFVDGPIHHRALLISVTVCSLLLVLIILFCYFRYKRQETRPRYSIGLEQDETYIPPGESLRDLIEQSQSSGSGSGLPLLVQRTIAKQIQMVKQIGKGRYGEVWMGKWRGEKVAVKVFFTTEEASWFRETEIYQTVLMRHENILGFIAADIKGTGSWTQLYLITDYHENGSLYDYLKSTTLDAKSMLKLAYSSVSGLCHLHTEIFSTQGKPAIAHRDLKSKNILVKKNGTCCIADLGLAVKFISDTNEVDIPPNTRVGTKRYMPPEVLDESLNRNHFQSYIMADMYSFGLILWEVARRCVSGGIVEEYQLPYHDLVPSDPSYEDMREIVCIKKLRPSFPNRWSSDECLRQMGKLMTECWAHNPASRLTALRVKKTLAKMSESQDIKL
Description: as §1

ALK2 [2] = target: T4, ALK2 (Homo sapiens, UniProt Q04771); assay: TR-FRET enzymatic ALK kinase assay, ALK2
T4 sequence (Q04771 21-509): T3 sequence (P37172 21-509) with V1M, Q10P, I121L, E162D, S310P
Description: as §1

ALK3 = ALK3 (Homo sapiens, UniProt P36894); assay: TR-FRET enzymatic ALK kinase assay, ALK3
Chain of ALK3 (P36894 24-532): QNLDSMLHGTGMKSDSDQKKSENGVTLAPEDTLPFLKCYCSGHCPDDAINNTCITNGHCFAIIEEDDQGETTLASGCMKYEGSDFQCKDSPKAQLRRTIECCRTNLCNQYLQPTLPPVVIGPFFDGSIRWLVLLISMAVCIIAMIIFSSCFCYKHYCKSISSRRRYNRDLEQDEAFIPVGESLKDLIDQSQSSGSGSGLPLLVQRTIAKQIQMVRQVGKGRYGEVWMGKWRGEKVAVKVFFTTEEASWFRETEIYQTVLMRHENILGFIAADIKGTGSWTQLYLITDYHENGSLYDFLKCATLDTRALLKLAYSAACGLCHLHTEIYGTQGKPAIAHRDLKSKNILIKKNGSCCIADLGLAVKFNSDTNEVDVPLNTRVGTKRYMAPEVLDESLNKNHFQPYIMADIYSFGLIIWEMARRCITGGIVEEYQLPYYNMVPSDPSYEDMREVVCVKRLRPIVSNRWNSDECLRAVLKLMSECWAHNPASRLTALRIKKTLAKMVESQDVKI
Description: as §1

| Compound | IC50 (ALK5) [µM] | IC50 (ALK4) [µM] | IC50 (ALK2 [1]) [µM] | IC50 (ALK1) [µM] | IC50 (ALK6) [µM] | IC50 (ALK2 [2]) [µM] | IC50 (ALK3) [µM] |
| --- | --- | --- | --- | --- | --- | --- | --- |
| C[C@@H]1CNC[C@H](C)N1c1ccc(-c2cnc3c(-c4ccc(CS(N)(=O)=O)cc4)cnn3c2)cc1 [Compound 71, (4-(6-(4-((2R,6S)-2,6-dimethylpiperazin-1-yl)phenyl)pyrazolo[1,5-a]pyrimidin-3-yl)phenyl)methanesulfonamide] | > 10 | > 10 | 22 | > 10 | > 10 | 5.1 | > 10 |
| CCS(=O)(=O)c1cccc(-c2cnn3cc(-c4ccc(CCN5CCCCC5)cc4)cnc23)c1 [Compound 106, 3-(3-(ethylsulfonyl)phenyl)-6-(4-(2-(piperidin-1-yl)ethyl)phenyl)pyrazolo[1,5-a]pyrimidine] | > 10 | > 10 | 0.0022 | 0.22 | > 10 | 0.066 | 2.2 |
| Cc1ccc([S+](=O)([O-])C(F)(F)F)cc1-c1cnn2cc(-c3ccc(N4[C@H](C)CNC[C@@H]4C)cc3)cnc12 [Compound 107, 6-(4-((2R,6S)-2,6-dimethylpiperazin-1-yl)phenyl)-3-(2-methyl-5-((trifluoromethyl)sulfonyl)phenyl)pyrazolo[1,5-a]pyrimidine] | > 10 | > 10 | 2.13 | > 10 | > 10 | 6.6 | > 10 |
| Cc1ccc(S(C)(=O)=O)cc1-c1cnn2cc(-c3ccc(N4[C@H](C)CNC[C@@H]4C)cc3)cnc12 [Compound 116, 6-(4-((2R,6S)-2,6-dimethylpiperazin-1-yl)phenyl)-3-(2-methyl-5-(methylsulfonyl)phenyl)pyrazolo[1,5-a]pyrimidine] | > 10 | > 10 | 0.319 | > 10 | > 10 | 2.2 | > 10 |
| CS(=O)(=O)c1cccc(-c2cnn3cc(-c4ccc(C(F)(F)CN5CCCC5)cc4)cnc23)c1 [Compound 119, 6-(4-(1,1-difluoro-2-(pyrrolidin-1-yl)ethyl)phenyl)-3-(3-(methylsulfonyl)phenyl)pyrazolo[1,5-a]pyrimidine] | > 10 | > 10 | 1.04 | 0.53 | > 10 | 0.21 | > 10 |
| CS(=O)(=O)c1cccc(-c2cnn3cc(-c4ccc(C(F)(F)CN5CCCCC5)cc4)cnc23)c1 [Compound 120, 6-(4-(1,1-difluoro-2-(piperidin-1-yl)ethyl)phenyl)-3-(3-(methylsulfonyl)phenyl)pyrazolo[1,5-a]pyrimidine] | > 10 | > 10 | 3.6 | > 10 | > 10 | > 10 | > 10 |

Next, values leading:

| IC50 (ALK5) [µM] | IC50 (ALK4) [µM] | IC50 (ALK2 [1]) [µM] | IC50 (ALK1) [µM] | IC50 (ALK6) [µM] | IC50 (ALK2 [2]) [µM] | IC50 (ALK3) [µM] | Compound |
| --- | --- | --- | --- | --- | --- | --- | --- |
| > 10 | > 10 | 2.25 | 0.93 | > 10 | 0.14 | > 10 | C[C@@H]1CNC[C@H](C)N1c1ccc(-c2cnc3c(-c4cccc(C#N)c4)cnn3c2)cc1 [Compound 69, 3-(6-(4-((2R,6S)-2,6-dimethylpiperazin-1-yl)phenyl)pyrazolo[1,5-a]pyrimidin-3-yl)benzonitrile] |
| > 10 | > 10 | 1.2 | 0.28 | > 10 | 0.066 | 2.8 | C[C@@H]1CNC[C@H](C)N1c1ccc(-c2cnc3c(-c4cccc(CCO)c4)cnn3c2)cc1 [Compound 70, 2-(3-(6-(4-((2R,6S)-2,6-dimethylpiperazin-1-yl)phenyl)pyrazolo[1,5-a]pyrimidin-3-yl)phenyl)ethanol] |
| > 10 | 6.4 | 0.75 | 0.16 | > 10 | 0.037 | 1.4 | C[C@@H]1CNC[C@H](C)N1c1ccc(-c2cnc3c(-c4cccc(CS(N)(=O)=O)c4)cnn3c2)cc1 [Compound 73, (3-(6-(4-((2R,6S)-2,6-dimethylpiperazin-1-yl)phenyl)pyrazolo[1,5-a]pyrimidin-3-yl)phenyl)methanesulfonamide] |
| > 10 | > 10 | 0.08 | 0.15 | > 10 | 0.04 | 1.7 | C[C@@H]1CNC[C@H](C)N1c1ccc(-c2cnc3c(-c4cccc(CO)c4)cnn3c2)cc1 [Compound 74, (3-(6-(4-((2R,6S)-2,6-dimethylpiperazin-1-yl)phenyl)pyrazolo[1,5-a]pyrimidin-3-yl)phenyl)methanol] |
| > 10 | > 10 | 0.71 | 0.48 | > 10 | 0.05 | 3.9 | O=[S+]([O-])(c1cccc(-c2cnn3cc(-c4ccc(C5CCNCC5)cc4)cnc23)c1)C1CC1 [Compound 110, 3-(3-(cyclopropylsulfonyl)phenyl)-6-(4-(piperidin-4-yl)phenyl)pyrazolo[1,5-a]pyrimidine] |
| > 10 | > 10 | 0.008 | 1.3 | 9.8 | 0.079 | 8.1 | O=[S+]([O-])(c1cccc(-c2cnn3cc(-c4ccc(CCN5CCCCC5)cc4)cnc23)c1)C1CC1 [Compound 112, 3-(3-(cyclopropylsulfonyl)phenyl)-6-(4-(2-(piperidin-1-yl)ethyl)phenyl)pyrazolo[1,5-a]pyrimidine] |
